Molecular target: T1, Rv3852 (Mycobacterium tuberculosis, UniProt I6YHB0)
T1 construct: gene hns
Assay: ITC; supported by competitive EMSA with proU2 DNA
Type: binding

T1 sequence (I6YHB0 2-134 limits assumed): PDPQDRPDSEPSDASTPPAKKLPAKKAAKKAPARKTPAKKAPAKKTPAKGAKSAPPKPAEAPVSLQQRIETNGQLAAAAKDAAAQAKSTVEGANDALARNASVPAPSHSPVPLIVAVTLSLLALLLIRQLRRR

SMILES | Kd
C#CCOc1c(C)c(O)c(Cc2c(O)c(C)c(O)c(C(=O)C(C)CC)c2O)c(O)c1C(=O)CCC (centres unmarked) [a1] | 22 µM
CCCC(=O)c1c(O)c(CC2(C)C(=O)C(C(=O)C(C)CC)=C(O)C(C)=C2O)c(O)c(C)c1OC (centres unmarked) [agrimophol] | 34 µM
